Results published in ChEMBL document CHEMBL1201861, “Genomics of Drug Sensitity in Cancer screening data, Wellcome Trust Sanger Institute”.

What was measured:
NCI-H1522 = assay: cells; format: functional, cell-based; conditions: Homo sapiens
Description: SANGER: Inhibition of human NCI-H1522 cell growth in a cell viability assay.

C-4-II = assay: SANGER: Inhibition of human C-4-II cell growth in a cell viability assay.; format: functional, cell-based
EFE-184 = assay: cells; format: functional, cell-based; conditions: Homo sapiens
Description: SANGER: Inhibition of human EFE-184 cell growth in a cell viability assay.

RT-4 = assay: SANGER: Inhibition of human RT4 cell growth in a cell viability assay.; format: functional, cell-based; conditions: Homo sapiens, RT-4
SK-CO-1 = assay: cells; format: functional, cell-based; conditions: Homo sapiens
Description: SANGER: Inhibition of human SK-CO-1 cell growth in a cell viability assay.

SU-DHL-1 = assay: SANGER: Inhibition of human SU-DHL-1 cell growth in a cell viability assay.; format: functional, cell-based
JIYOYE = assay: cells; format: functional, cell-based; conditions: Homo sapiens
Description: SANGER: Inhibition of human JiyoyeP-2003 cell growth in a cell viability assay.

CA46 = assay: cells; format: functional, cell-based; conditions: Homo sapiens
Description: SANGER: Inhibition of human CA46 cell growth in a cell viability assay.

NCI-H1734 = assay: cells; format: functional, cell-based; conditions: Homo sapiens
Description: SANGER: Inhibition of human NCI-H1734 cell growth in a cell viability assay.

MES-SA = assay: cells; format: functional, cell-based, Homo sapiens; conditions: Homo sapiens, MES-SA
Description: SANGER: Inhibition of human MES-SA cell growth in a cell viability assay.

BOKU = assay: cells; format: functional, cell-based; conditions: Homo sapiens
Description: SANGER: Inhibition of human BOKU cell growth in a cell viability assay.

NB1 = assay: cells; format: functional, cell-based; conditions: Homo sapiens
Description: SANGER: Inhibition of human NB1 cell growth in a cell viability assay.

LOUCY = assay: cells; format: functional, cell-based; conditions: Homo sapiens
Description: SANGER: Inhibition of human LOUCY cell growth in a cell viability assay.

WSU-NHL = assay: cells; format: functional, cell-based; conditions: Homo sapiens
Description: SANGER: Inhibition of human WSU-NHL cell growth in a cell viability assay.

SNU-475 = assay: cells; format: functional, cell-based; conditions: Homo sapiens
Description: SANGER: Inhibition of human SNU-475 cell growth in a cell viability assay.

Raji = assay: cells; format: functional, cell-based; conditions: Homo sapiens
Description: SANGER: Inhibition of human Raji cell growth in a cell viability assay.

SNU-C1 = assay: cells; format: functional, cell-based; conditions: Homo sapiens
Description: SANGER: Inhibition of human SNU-C1 cell growth in a cell viability assay.

SNU-16 = assay: cells; format: functional, cell-based; conditions: Homo sapiens
Description: SANGER: Inhibition of human NCI-SNU-16 cell growth in a cell viability assay.

TE-15 = assay: cells; format: functional, cell-based; conditions: Homo sapiens
Description: SANGER: Inhibition of human TE-15 cell growth in a cell viability assay.

DV-90 = assay: cells; format: functional, cell-based; conditions: Homo sapiens
Description: SANGER: Inhibition of human DV-90 cell growth in a cell viability assay.

EVSA-T = assay: cells; format: functional, cell-based, Homo sapiens; conditions: Homo sapiens, EVSA-T
Description: SANGER: Inhibition of human EVSA-T cell growth in a cell viability assay.

PF-382 = assay: cells; format: functional, cell-based; conditions: Homo sapiens
Description: SANGER: Inhibition of human PF-382 cell growth in a cell viability assay.

EW-7 = assay: SANGER: Inhibition of human EW-7 cell growth in a cell viability assay.; format: functional, cell-based; conditions: Homo sapiens, EW-7
CHP-126 = assay: cells; format: functional, cell-based; conditions: Homo sapiens
Description: SANGER: Inhibition of human CHP-126 cell growth in a cell viability assay.

SNG-M = assay: cells; format: functional, cell-based; conditions: Homo sapiens
Description: SANGER: Inhibition of human SNG-M cell growth in a cell viability assay.

NCI-H2081 = assay: cells; format: functional, cell-based; conditions: Homo sapiens
Description: SANGER: Inhibition of human NCI-H2081 cell growth in a cell viability assay.

MHH-CALL-2 = assay: cells; format: functional, cell-based; conditions: Homo sapiens
Description: SANGER: Inhibition of human MHH-CALL-2 cell growth in a cell viability assay.

TT = assay: cells; format: functional, cell-based; conditions: Homo sapiens
Description: SANGER: Inhibition of human TT cell growth in a cell viability assay.

CESS = assay: SANGER: Inhibition of human CESS cell growth in a cell viability assay.; format: functional, cell-based
MDA-MB-468 = assay: cells; format: functional, cell-based; conditions: Homo sapiens
Description: SANGER: Inhibition of human MDA-MB-468 cell growth in a cell viability assay.

SIG-M5 = assay: cells; format: functional, cell-based; conditions: Homo sapiens
Description: SANGER: Inhibition of human SIG-M5 cell growth in a cell viability assay.

MRK-nu-1 = assay: cells; format: functional, cell-based; conditions: Homo sapiens
Description: SANGER: Inhibition of human MRK-nu-1 cell growth in a cell viability assay.

Caov-3 cell line = assay: cells; format: functional, cell-based; conditions: Homo sapiens
Description: SANGER: Inhibition of human Caov-3 cell growth in a cell viability assay.

RPMI 8402 = assay: SANGER: Inhibition of human RPMI-8402 cell growth in a cell viability assay.; format: functional, cell-based
Calu-1 = assay: SANGER: Inhibition of human Calu-1 cell growth in a cell viability assay.; format: functional, cell-based
SNU-423 = assay: cells; format: functional, cell-based, Homo sapiens; conditions: Homo sapiens, SNU-423
Description: SANGER: Inhibition of human SNU-423 cell growth in a cell viability assay.

CMK = assay: cells; format: functional, cell-based; conditions: Homo sapiens
Description: SANGER: Inhibition of human CMK cell growth in a cell viability assay.

ECC12 = assay: cells; format: functional, cell-based; conditions: Homo sapiens
Description: SANGER: Inhibition of human ECC12 cell growth in a cell viability assay.

DMS-53 = assay: cells; format: functional, cell-based, Homo sapiens; conditions: Homo sapiens, DMS-53
Description: SANGER: Inhibition of human DMS-53 cell growth in a cell viability assay.

Kasumi 1 = assay: cells; format: functional, cell-based; conditions: Homo sapiens
Description: SANGER: Inhibition of human KASUMI-1 cell growth in a cell viability assay.

NCI-H524 = assay: cells; format: functional, cell-based; conditions: Homo sapiens
Description: SANGER: Inhibition of human NCI-H524 cell growth in a cell viability assay.

NCI-H1618 = assay: cells; format: functional, cell-based; conditions: Homo sapiens
Description: SANGER: Inhibition of human NCI-H1618 cell growth in a cell viability assay.

NCI-H630 = assay: cells; format: functional, cell-based, Homo sapiens; conditions: Homo sapiens, NCI-H630
Description: SANGER: Inhibition of human NCI-H630 cell growth in a cell viability assay.

SCC-3 = assay: cells; format: functional, cell-based; conditions: Homo sapiens
Description: SANGER: Inhibition of human SCC-3 cell growth in a cell viability assay.

MFE-296 = assay: SANGER: Inhibition of human MFE-296 cell growth in a cell viability assay.; format: functional, cell-based
PLC-PRF-5 = assay: cells; format: functional, cell-based; conditions: Homo sapiens
Description: SANGER: Inhibition of human PLC-PRF-5 cell growth in a cell viability assay.

HCC1143 = assay: cells; format: functional, cell-based; conditions: Homo sapiens
Description: SANGER: Inhibition of human HCC1143 cell growth in a cell viability assay.

IPC-298 = assay: SANGER: Inhibition of human IPC-298 cell growth in a cell viability assay.; format: functional, cell-based

## COC(=O)CNC(=O)C(=O)OC
NCI-H1522
  IC50: > 4000 µM
C-4-II
  IC50: 552 µM
EFE-184
  IC50: 553 µM
RT-4
  IC50: 649 µM
SK-CO-1
  IC50: > 4000 µM
SU-DHL-1
  IC50: 125 µM
JIYOYE
  IC50: 291 µM
CA46
  IC50: 96 µM
NCI-H1734
  IC50: > 4000 µM
MES-SA
  IC50: 1070 µM
BOKU
  IC50: 177 µM
NB1
  IC50: 210 µM
LOUCY
  IC50: 10.3 µM
WSU-NHL
  IC50: > 4000 µM
SNU-475
  IC50: 2580 µM
Raji
  IC50: 609 µM
SNU-C1
  IC50: 2100 µM
SNU-16
  IC50: > 4000 µM
TE-15
  IC50: 218 µM
DV-90
  IC50: > 4000 µM
EVSA-T
  IC50: > 4000 µM
PF-382
  IC50: 85.4 µM
EW-7
  IC50: 729 µM
CHP-126
  IC50: 3500 µM
SNG-M
  IC50: > 4000 µM
NCI-H2081
  IC50: 1010 µM
MHH-CALL-2
  IC50: 173 µM
TT
  IC50: 538 µM
CESS
  IC50: 60.8 µM
MDA-MB-468
  IC50: > 4000 µM
SIG-M5
  IC50: 57.6 µM
MRK-nu-1
  IC50: 1800 µM
Caov-3 cell line
  IC50: 1080 µM
RPMI 8402
  IC50: 313 µM
Calu-1
  IC50: 896 µM
SNU-423
  IC50: 175 µM
CMK
  IC50: 126 µM
ECC12
  IC50: 1800 µM
DMS-53
  IC50: 181 µM
Kasumi 1
  IC50: 122 µM
NCI-H524
  IC50: 2760 µM
NCI-H1618
  IC50: > 4000 µM
NCI-H630
  IC50: 3880 µM
SCC-3
  IC50: 1740 µM
MFE-296
  IC50: 318 µM
PLC-PRF-5
  IC50: 1190 µM
HCC1143
  IC50: > 4000 µM
IPC-298
  IC50: 1670 µM

## CN(c1ncccc1CNc1nc(Nc2ccc3c(c2)CC(=O)N3)ncc1C(F)(F)F)S(C)(=O)=O [PF-00562271]
NCI-H1522
  IC50: > 2.56 µM
C-4-II
  IC50: > 2.56 µM
EFE-184
  IC50: > 2.56 µM
RT-4
  IC50: > 2.56 µM
SK-CO-1
  IC50: > 2.56 µM
SU-DHL-1
  IC50: > 2.56 µM
JIYOYE
  IC50: > 2.56 µM
CA46
  IC50: > 2.56 µM
NCI-H1734
  IC50: > 2.56 µM
MES-SA
  IC50: 1.31 µM
BOKU
  IC50: > 2.56 µM
NB1
  IC50: > 2.56 µM
LOUCY
  IC50: 2.26 µM
WSU-NHL
  IC50: > 2.56 µM
SNU-475
  IC50: > 2.56 µM
Raji
  IC50: > 2.56 µM
SNU-C1
  IC50: > 2.56 µM
SNU-16
  IC50: > 2.56 µM
TE-15
  IC50: > 2.56 µM
DV-90
  IC50: > 2.56 µM
EVSA-T
  IC50: > 2.56 µM
PF-382
  IC50: > 2.56 µM
EW-7
  IC50: > 2.56 µM
CHP-126
  IC50: > 2.56 µM
SNG-M
  IC50: > 2.56 µM
NCI-H2081
  IC50: > 2.56 µM
MHH-CALL-2
  IC50: > 2.56 µM
TT
  IC50: > 2.56 µM
CESS
  IC50: > 2.56 µM
MDA-MB-468
  IC50: 1.91 µM
SIG-M5
  IC50: 1.48 µM
MRK-nu-1
  IC50: > 2.56 µM
Caov-3 cell line
  IC50: > 2.56 µM
RPMI 8402
  IC50: > 2.56 µM
Calu-1
  IC50: > 2.56 µM
SNU-423
  IC50: > 2.56 µM
CMK
  IC50: 2.42 µM
ECC12
  IC50: > 2.56 µM
DMS-53
  IC50: > 2.56 µM
Kasumi 1
  IC50: 2.33 µM
NCI-H524
  IC50: > 2.56 µM
NCI-H1618
  IC50: > 2.56 µM
NCI-H630
  IC50: > 2.56 µM
SCC-3
  IC50: > 2.56 µM
MFE-296
  IC50: 2.48 µM
PLC-PRF-5
  IC50: > 2.56 µM
HCC1143
  IC50: > 2.56 µM
IPC-298
  IC50: > 2.56 µM

## Cc1cnc(-c2cnc(NCCNc3ccc(C#N)cn3)nc2-c2ccc(Cl)cc2Cl)[nH]1 [LADUVIGLUSIB]
NCI-H1522
  IC50: > 2.56 µM
C-4-II
  IC50: > 2.56 µM
EFE-184
  IC50: > 2.56 µM
RT-4
  IC50: > 2.56 µM
SK-CO-1
  IC50: > 2.56 µM
SU-DHL-1
  IC50: > 2.56 µM
JIYOYE
  IC50: > 2.56 µM
CA46
  IC50: > 2.56 µM
NCI-H1734
  IC50: > 2.56 µM
MES-SA
  IC50: > 2.56 µM
BOKU
  IC50: > 2.56 µM
NB1
  IC50: > 2.56 µM
LOUCY
  IC50: > 2.56 µM
WSU-NHL
  IC50: > 2.56 µM
SNU-475
  IC50: > 2.56 µM
Raji
  IC50: > 2.56 µM
SNU-C1
  IC50: > 2.56 µM
SNU-16
  IC50: > 2.56 µM
TE-15
  IC50: > 2.56 µM
DV-90
  IC50: > 2.56 µM
EVSA-T
  IC50: > 2.56 µM
PF-382
  IC50: > 2.56 µM
EW-7
  IC50: > 2.56 µM
CHP-126
  IC50: > 2.56 µM
SNG-M
  IC50: > 2.56 µM
NCI-H2081
  IC50: > 2.56 µM
MHH-CALL-2
  IC50: > 2.56 µM
TT
  IC50: > 2.56 µM
CESS
  IC50: > 2.56 µM
MDA-MB-468
  IC50: > 2.56 µM
SIG-M5
  IC50: > 2.56 µM
MRK-nu-1
  IC50: > 2.56 µM
Caov-3 cell line
  IC50: > 2.56 µM
RPMI 8402
  IC50: > 2.56 µM
Calu-1
  IC50: > 2.56 µM
SNU-423
  IC50: 2.5 µM
CMK
  IC50: > 2.56 µM
ECC12
  IC50: > 2.56 µM
DMS-53
  IC50: > 2.56 µM
Kasumi 1
  IC50: > 2.56 µM
NCI-H524
  IC50: > 2.56 µM
NCI-H1618
  IC50: > 2.56 µM
NCI-H630
  IC50: > 2.56 µM
SCC-3
  IC50: > 2.56 µM
MFE-296
  IC50: > 2.56 µM
PLC-PRF-5
  IC50: > 2.56 µM
HCC1143
  IC50: > 2.56 µM
IPC-298
  IC50: > 2.56 µM
